The results in this text go back to US9517241B2, “Amelioration of intestinal fibrosis and treatment of Crohn's disease” (THE REGENTS OF THE UNIVERSITY OF MICHIGAN, priority 2013, dated 2016).

What all share (assay type): cell-based, human
Test [1] deals with Ccd-18co colonic myofibroblasts. Kind of test: Matrix stiffness model: confocal immunofluorescence of focal adhesions (vinculin) and actin stress fibers (phalloidin). The note with it: stiff substrate, 1000 nM CARD-024. Here is the method:
(§1) Cells were plated at 30-40% confluence. To stimulate a fibrotic phenotype, Ccd-18co cells were serum-starved for 24 h prior to treatment with 1 ng/ml TGFβ or 1 ng/ml TGFβ and increasing doses of CARD-024 (10-1000 nM) for 48 h. Given ethanol was used to dilute CARD-024, ethanol was added to the untreated and TGFβ treated cells to a final concentration of 0.1%. For stiffness experiments, low-passage number Ccd-18co cells were seeded at 1×10^5 cells/ml on 6-well plates containing collagen-coated acrylamide gels corresponding to soft (4.3 kPa, 0.02% bisacrylamide) or stiff (28.1 kPa, 0.16%) matrices. Cells were allowed to attach to the matrix for 4 h and then the gels were transferred to new wells to avoid paracrine signaling from cells attached to the plastic well bottom. For the CARD-024 stiffness experiments, cells were plated as described above and serum-starved overnight prior to treatment with 1000 nM of CARD-024 diluted in 100% ethanol for 24 h. The 1000 nM CARD-024 dose was selected from the results of the TGFβ experiments. […]
Expression of activated myofibroblast markers was analyzed by confocal immunofluorescence microscopy using the Olympus FluoView™ FV500/IX system (Olympus America, Center Valley, Pa.) at the University of Michigan Microscopy and Image Analysis Laboratory. […]

A further test has as its system MLCK gene expression. As to the kind of experiment: Matrix stiffness model: QRT-PCR of MLCK. The note with it: high stiffness substrate, 1000 nM CARD-024. The procedure:
as §1, with “bottom.” for “bottom. For the CARD-024 stiffness experiments, cells were plated as described above and serum-starved overnight prior to treatment with 1000 nM of CARD-024 diluted in 100% ethanol for 24 h. The 1000 nM CARD-024 dose was selected from the results of the TGFβ experiments.”
(§2) RNA from Ccd-18co cells was extracted using the RNeasy kit (Qiagen, Valencia, Calif.). cDNA was generated by reverse transcription of 1 μg of total RNA using the Superscript First Strand RT kit (Invitrogen, Carlsbad, Calif.). Quantitative real-time PCR (qPCR) was performed for MLCK, IL-1β, PTGS2, ET-1, and GAPDH with the TaqMan gene expression assays (ABI, Foster City, Calif.) on a Bio-Rad iCycler real-time PCR system. […] Gene expression was normalized to GAPDH as the endogenous control, and fold-changes (RQ) relative to untreated controls were calculated using the […] (Livak and Schmittgen, 2001).

The next test deals with IL-1β expression. As to the kind of experiment: Matrix stiffness model: QRT-PCR of IL-1β. The following applies: 1000 nM CARD-024, relative to untreated/low stiffness. Here is the method: as §1, with “bottom.” for “bottom. For the CARD-024 stiffness experiments, cells were plated as described above and serum-starved overnight prior to treatment with 1000 nM of CARD-024 diluted in 100% ethanol for 24 h. The 1000 nM CARD-024 dose was selected from the results of the TGFβ experiments.”
as §2

The next test relates to ET-1 gene expression. Kind of test: Matrix stiffness model: QRT-PCR of ET-1. The note with it: high stiffness conditions, 1000 nM CARD-024. Here is the method: as §1, with “bottom.” for “bottom. For the CARD-024 stiffness experiments, cells were plated as described above and serum-starved overnight prior to treatment with 1000 nM of CARD-024 diluted in 100% ethanol for 24 h. The 1000 nM CARD-024 dose was selected from the results of the TGFβ experiments.”
as §2

Another test relates to Fn-1 gene expression. Kind of test: Matrix stiffness model: expression of Fn-1. The following applies: CARD-024 treatment. Here is the method: (§3) Cells were plated at 30-40% confluence. To stimulate a fibrotic phenotype, Ccd-18co cells were serum-starved for 24 h prior to treatment with 1 ng/ml TGFβ or 1 ng/ml TGFβ and increasing doses of CARD-024 (10-1000 nM) for 48 h. Given ethanol was used to dilute CARD-024, ethanol was added to the untreated and TGFβ treated cells to a final concentration of 0.1%. For stiffness experiments, low-passage number Ccd-18co cells were seeded at 1×10^5 cells/ml on 6-well plates containing collagen-coated acrylamide gels corresponding to soft (4.3 kPa, 0.02% bisacrylamide) or stiff (28.1 kPa, 0.16%) matrices. Cells were allowed to attach to the matrix for 4 h and then the gels were transferred to new wells to avoid paracrine signaling from cells attached to the plastic well bottom. For the CARD-024 stiffness experiments, cells were plated as described above and serum-starved overnight prior to treatment with 1000 nM of CARD-024 diluted in 100% ethanol for 24 h. The 1000 nM CARD-024 dose was selected from the results of the TGFβ experiments. Since ethanol was used to dilute CARD-024, ethanol was added to untreated cells to a final concentration of 0.1%.Experiments were performed on early (4 to 7) passage cells. Cultures were routinely assayed for mycoplasma contamination.
(§4) Prior to seeding with colonic myofibroblasts, the acrylamide gels were collagen-coated. […]

Test [2] relates to fibrogenic genes (col1A1, Fn1, MLCK, ET-1) in Ccd-18co colonic myofibroblasts. As to the kind of experiment: TGFβ-stimulated colonic myofibroblasts, fibrogenic gene expression. The note with it: TGFβ1-stimulated Ccd-18co colonic myofibroblasts. Here is the method: as §1, with “bottom.” for “bottom. For the CARD-024 stiffness experiments, cells were plated as described above and serum-starved overnight prior to treatment with 1000 nM of CARD-024 diluted in 100% ethanol for 24 h. The 1000 nM CARD-024 dose was selected from the results of the TGFβ experiments.”
as §2

Test [3] has as its system phosphorylation of focal adhesion kinase (FAK). As to the kind of experiment: Matrix stiffness model: pFAK protein expression (Western blot). The note with it: high stiffness matrix, 1000 nM CARD-024. Here is the method:
as §1, with “bottom.” for “bottom. For the CARD-024 stiffness experiments, cells were plated as described above and serum-starved overnight prior to treatment with 1000 nM of CARD-024 diluted in 100% ethanol for 24 h. The 1000 nM CARD-024 dose was selected from the results of the TGFβ experiments.”
pFAK was detected using a rabbit polyclonal phosphospecific antibody against Tyr-397-FAK (Invitrogen) at 1:5000. […] After washing, the membranes were incubated with the appropriate secondary antibody (anti-mouse IgG+HRP or anti-rabbit IgG+HRP, Amersham, Piscataway, N.J.) for 1 h at room temperature and the signal was detected by the Pierce detection system (Pierce, Rockford, Ill.). Autoradiographs were scanned and quantitated using ImageJ analysis software (NIH, Bethesda, Md.).
Background: In western blotting, separated proteins are transferred to a membrane and probed.

Another test has as its system colA1 gene expression. As to the kind of experiment: Matrix stiffness model: expression of colA1. The note with it: CARD-024 treatment. Here is the method:
as §3, §4

Test [4] concerns αSMA protein expression in Ccd-18co cells. Kind of test: TGFβ-stimulated colonic myofibroblasts, αSMA protein expression (Western blot). The procedure:
Colonic human myofibroblast Ccd-18co cells (CRL-1459 from ATCC) were cultured in alpha-MEM (Invitrogen, Carlsbad, Calif.) supplemented with 10% fetal bovine serum and sub-cultured weekly.
Cells were plated at 30-40% confluence. To stimulate a fibrotic phenotype, Ccd-18co cells were serum-starved for 24 h prior to treatment with 1 ng/ml TGFβ or 1 ng/ml TGFβ and increasing doses of CARD-024 (10-1000 nM) for 48 h. Given ethanol was used to dilute CARD-024, ethanol was added to the untreated and TGFβ treated cells to a final concentration of 0.1%. […]
(§5) Total protein was separated by SDS polyacrylamide gel electrophoresis (Bio-Rad,) with prestained protein markers loaded for molecular mass determination (Invitrogen, Carlsbad, Calif.), and transferred to PVDF membranes (Amersham Biosciences, Piscataway, N.J.). Membranes were blocked in 5% milk/TBST solution for 1 h at room temperature or overnight at 4° C. α-smooth muscle actin was detected by incubating the membrane overnight at 4° C. with mouse anti-human monoclonal antibody (Sigma, St. Louis, Mo.) at 1:5000 dilution in 5% milk/TBST.
(§6) pFAK was detected using a rabbit polyclonal phosphospecific antibody against Tyr-397-FAK (Invitrogen) at 1:5000. […] Autoradiographs were scanned and quantitated using ImageJ analysis software (NIH, Bethesda, Md.).

Test [5] has as its system Ccd-18co colonic myofibroblasts. Kind of test: Matrix stiffness model: cell morphology, cell length and cell count (microscopy). The note with it: for dendrite length: 1000 nM CARD-024, 24 h. Here is the method:
as §3
Collagen-coated polyacrylamide gels corresponding to physiological stiffnesses of 2.6 kPa to 28.1 kPa were generated using varying ratios of 40% acrylamide to 2% bisacrylamide (Bio-Rad, Hercules, Calif.) (Aplin and Hughes, 1981; Pelham and Wang, 1998). Specifically, an aqueous solution of 0.10% ammonium persulfate (Bio-Rad), 0.15% TEMED (Bio-Rad), 40% acrylamide solution was supplemented with 0.01%, 0.02%, 0.08%, or 0.16% bisacrylamide. The acrylamide gels were polymerized on a NaOH treated, amino-silanated (3-aminopropyltriethoxysilane), and glutaraldehyde treated 25 mm round glass coverslip. […] of each acrylamide/bisacrylamide solution was filter sterilized and pipetted unto a chloro-silanated glass surface treated with dichlorodimethylsilane (DCDMS) and a treated coverslip was inverted onto the acrylamide/biacrylamide solution. The acrylamide matrix was allowed to polymerize for 10 min between the two surfaces and transferred to a 6-well tissue culture plate containing sterile PBS. As determined by a series of stability experiments (data not shown), the acrylamide gels were stable for at least 1 month. […]
Cells were photographed using a Leica (Leica Microsystems Inc., Buffalo Grove, Ill.) DMIRB inverted microscope and photographed with an Olympus DP-30 camera (Center Valley, Pa.). Cell length was determined from photomicrographs using ImageJ (NIH, Bethesda, Md.). Cell count was determined from a minimum of 3 representative photographs of a 100× magnification field. […]

Test [6] has as its system PTGS2 (which encodes the COX-2 enzyme). As to the kind of experiment: Matrix stiffness model: QRT-PCR of PTGS2. The following applies: low and high stiffness, 1000 nM CARD-024. Here is the method:
as §1, with “bottom.” for “bottom. For the CARD-024 stiffness experiments, cells were plated as described above and serum-starved overnight prior to treatment with 1000 nM of CARD-024 diluted in 100% ethanol for 24 h. The 1000 nM CARD-024 dose was selected from the results of the TGFβ experiments.”
as §2

Test [7] deals with αSMA protein expression in colonic myofibroblasts. Kind of test: Matrix stiffness model: αSMA protein expression (Western blot). The following applies: high stiffness substrate, 1000 nM CARD-024. The procedure: Cells were plated at 30-40% confluence. To stimulate a fibrotic phenotype, Ccd-18co cells were serum-starved for 24 h prior to treatment with 1 ng/ml TGFβ or 1 ng/ml TGFβ and increasing doses of CARD-024 (10-1000 nM) for 48 h. Given ethanol was used to dilute CARD-024, ethanol was added to the untreated and TGFβ treated cells to a final concentration of 0.1%. For stiffness experiments, low-passage number Ccd-18co cells were seeded at 1×10^5 cells/ml on 6-well plates containing collagen-coated acrylamide gels corresponding to soft (4.3 kPa, 0.02% bisacrylamide) or stiff (28.1 kPa, 0.16%) matrices. […]
as §5, §6

For the compound `C=C1/C(=C\C=C2/CCC[C@]3(C)[C@@H]([C@H](C)CC[C@@H](CC)C(C)C)CC[C@@H]23)C[C@@H](O)C[C@@H]1O` [CARD-024, (1S,3R)-(5Z,7E)-9,10-Secositosta-5,7,10(19)-triene-1,3-diol], the “focal adhesions (vinculin staining)” value in [1] is “inhibited focal adhesion maturation”. In addition, the MLCK expression result in the test with MLCK gene expression is “significantly repressed MLCK expression to levels comparable to untreated cells on the low stiffness substrate”. Also, the “induction of IL-1β expression” value turned out to be 1.8 fold with IL-1β expression (high stiffness, p=0.002) and 4 fold with IL-1β expression (low stiffness). In addition, the ET-1 expression result in the test with ET-1 gene expression is recorded as “significantly repressed ET-1 expression in high stiffness conditions to levels indistinguishable from low stiffness conditions”. Also, in the test with Fn-1 gene expression, the Fn-1 expression result is given as “did not repress”. Also, the fibrogenic gene expression entry in test [2] is given as “minimal impact on fibrogenic gene expression”. Further, the FAK phosphorylation result in test [3] was “inhibited FAK phosphorylation”. Besides, the colA1 expression result in the test on colA1 gene expression was “did not repress”. Moreover, in [4] (Ccd-18co cells stimulated with TGFβ, 10-1000 nM CARD-024), the “αSMA protein expression, dose response” value is on record as “attenuated αSMA protein expression in a dose-responsive manner”. Besides, in test [4] (Ccd-18co cells, 1 ng/ml TGFβ, 1000 nM CARD-024, 48 h, normalized to GAPDH, p=0.012), the “attenuation of αSMA protein expression” value came out at 2 fold. Further, the dendrite length in test [5] (high stiffness (28.1 kPa) matrix) stood at 145 μm; in [5] (low stiffness (4.3 kPa) matrix), 146 μm. Besides, the cell morphology result in [5] (high stiffness substrate, 1000 nM CARD-024) is listed as “repressed the effects of matrix stiffness on cell morphology”. Besides, the “reduction in cell number compared to untreated cells” value in [5] (stiff matrix (28.1 kPa), 1000 nM CARD-024, not significant) stood at 50%. Further, the PTGS2 expression entry in [6] is “induced PTGS2 at both low and high stiffness”. Besides, the αSMA expression entry in test [7] was “repressed αSMA expression on the high stiffness substrate to levels indistinguishable from the low stiffness substrate”.
